Experimental data: US20110015226A1, “Treatment of Energy Utilization Disease” (SUMMIT CORPORATION PLC, priority 2008, published 2011)
Like-named read-outs stand apart in the source and are kept apart here.

Key:
Type in all cases: biochemical
[1] = target: T1, N-acetyl-β-D-glucosaminidase (A. oryzae) (Aspergillus oryzae, UniProt Q8J2T0); experiment: Glycosidase inhibition: N-acetyl-β-D-glucosaminidase (A. oryzae); settings: compounds tested at 0.8 mM
T1 construct: purchased Sigma
Source text: (§1) The results tabulated below were obtained using commercially available glycosidases and p-nitrophenyl-substrates using standard methods described for example by Watson et al (1997) Phytochemistry 46 255-259. All enzymes and substrates were bought from Sigma. Enzyme and substrate solutions were made using sodium phosphate buffers at the pH optima values. The enzymes used were α-D-glucosidase Saccharomyces cerevisiae, Bacillus stearothermophilus, Oryzae sativa), β-D-glucosidase (Almond), α-D-mannosidase (Jack bean), α-D-galactosidase (Green coffee beans), β-D-galactosidase (Bovine liver), α-L-fucosidase (Bovine kidney), N-acetyl-β-D-glucosaminidase (Bovine kidney, Jack bean, Aspergillus oryzae), Naringinase (Penicillium decumbens) and amyloglucosidase (Aspergillus niger). All enzymes were used with the appropriate p-nitrophenyl substrates (5 mM). Amyloglucosidase activity was measured using amylopectin (0.1%) (Merck) mixed with sodium phosphate buffer, pH 4.5 in a glass bottle, and healed in a boiling water bath for 20 minutes to dissolve with released glucose measured using ‘Trinder’ glucose detection solution (Sigma).
(§2) All enzymes and para-nitrophenyl substrates were purchased from Sigma, with the exception of beta-mannosidase which came from Megazyme. Enzymes were assayed at 27° C. in 0.1M citric acid/0.2M disodium hydrogen phosphate buffers at the optimum pH for the enzyme. The incubation mixture consisted of 10 μl enzyme solution, 10 μl of 1 mg/ml aqueous solution of extract and 50 μl of the appropriate 5 mM para-nitrophenyl substrate made up in buffer at the optimum pH for the enzyme. The reactions were stopped by addition of 70 μl 0.4M glycine (pH 10.4) during the exponential phase of the reaction, which had been determined at the beginning using uninhibited assays in which water replaced inhibitor. Final absorbances were read at 405 nm using a Versamax microplate reader (Molecular Devices). Assays were carried out in triplicate, and the values given are means of the three replicates per assay. (See Watson, A. A., Nash, R. J., Wormald, M. R., Harvey, D. J., Dealler, S., Lees, E., Asano, N., Kizu, H., Kato, A., Griffiths, R. C., Cairns, A. J. and Fleet, G. W. J. (1997). Glycosidase-inhibiting pyrrolidine alkaloids from Hyacinthoides non-scripta. Phytochemistry 46 (2): 255-259.)

[2] = target: T2, rabbit intestinal sucrase (Oryctolagus cuniculus, UniProt P07768); experiment: Rabbit disaccharidase inhibition assay: sucrase; settings: NI: no inhibition at 0.8 mM
T2 construct: The small intestine was dissected out of a female wild rabbit; from tissue; host or cells: small-intestinal mucosa of a female wild rabbit
T2 sequence (P07768 whole entry): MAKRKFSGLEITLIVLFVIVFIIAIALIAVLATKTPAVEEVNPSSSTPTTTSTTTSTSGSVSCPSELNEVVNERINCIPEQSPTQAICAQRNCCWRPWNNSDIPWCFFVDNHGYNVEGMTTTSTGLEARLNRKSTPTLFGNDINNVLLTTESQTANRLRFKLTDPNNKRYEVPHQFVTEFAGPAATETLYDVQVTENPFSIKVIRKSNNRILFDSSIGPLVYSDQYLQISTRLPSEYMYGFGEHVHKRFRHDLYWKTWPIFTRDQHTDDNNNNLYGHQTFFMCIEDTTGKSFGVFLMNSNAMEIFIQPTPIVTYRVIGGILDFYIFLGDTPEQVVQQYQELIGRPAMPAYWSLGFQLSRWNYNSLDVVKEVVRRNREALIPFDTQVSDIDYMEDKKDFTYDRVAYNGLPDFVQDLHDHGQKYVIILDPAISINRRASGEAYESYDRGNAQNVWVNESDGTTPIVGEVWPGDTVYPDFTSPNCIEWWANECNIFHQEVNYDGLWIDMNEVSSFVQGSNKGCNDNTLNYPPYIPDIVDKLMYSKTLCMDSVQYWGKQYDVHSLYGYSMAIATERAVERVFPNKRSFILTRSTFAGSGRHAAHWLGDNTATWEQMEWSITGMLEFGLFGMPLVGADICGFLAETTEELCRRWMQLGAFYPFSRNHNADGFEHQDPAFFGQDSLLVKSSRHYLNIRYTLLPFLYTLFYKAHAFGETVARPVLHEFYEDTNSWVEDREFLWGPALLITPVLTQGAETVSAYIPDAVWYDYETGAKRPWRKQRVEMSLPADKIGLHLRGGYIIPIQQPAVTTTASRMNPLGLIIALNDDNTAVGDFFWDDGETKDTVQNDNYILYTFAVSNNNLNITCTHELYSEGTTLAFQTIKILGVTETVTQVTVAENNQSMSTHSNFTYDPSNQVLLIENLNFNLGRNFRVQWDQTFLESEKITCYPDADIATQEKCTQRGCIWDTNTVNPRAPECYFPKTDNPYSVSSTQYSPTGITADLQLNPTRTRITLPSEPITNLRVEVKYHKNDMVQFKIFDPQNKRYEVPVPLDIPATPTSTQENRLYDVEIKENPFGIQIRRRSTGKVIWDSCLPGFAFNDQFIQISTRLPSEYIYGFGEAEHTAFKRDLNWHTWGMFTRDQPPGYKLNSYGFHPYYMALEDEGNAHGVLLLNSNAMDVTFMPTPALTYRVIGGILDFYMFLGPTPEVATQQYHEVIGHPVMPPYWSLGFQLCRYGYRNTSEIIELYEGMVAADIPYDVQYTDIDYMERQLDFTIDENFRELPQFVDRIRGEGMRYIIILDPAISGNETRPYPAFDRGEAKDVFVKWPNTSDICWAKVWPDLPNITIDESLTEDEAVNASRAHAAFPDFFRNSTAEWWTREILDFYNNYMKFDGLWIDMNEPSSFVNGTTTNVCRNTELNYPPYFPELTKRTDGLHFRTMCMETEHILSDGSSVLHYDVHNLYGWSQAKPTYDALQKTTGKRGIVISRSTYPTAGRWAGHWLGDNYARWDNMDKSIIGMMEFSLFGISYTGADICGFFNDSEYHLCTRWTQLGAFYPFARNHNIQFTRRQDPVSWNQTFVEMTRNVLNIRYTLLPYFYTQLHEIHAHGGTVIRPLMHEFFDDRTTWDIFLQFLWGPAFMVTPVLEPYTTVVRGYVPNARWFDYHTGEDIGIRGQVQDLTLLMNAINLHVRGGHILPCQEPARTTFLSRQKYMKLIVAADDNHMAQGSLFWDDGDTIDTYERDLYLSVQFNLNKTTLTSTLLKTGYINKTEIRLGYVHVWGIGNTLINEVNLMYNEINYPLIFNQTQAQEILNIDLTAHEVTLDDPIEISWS
Experimental: Sucrose (8.3 mM), maltose (5 mM) and isomaltose (6.3 mM) substrates were made using 0.2 M Macllvaine (citrate-phosphate) buffer, pH 6.0. The glucose detection reagent was prepared according to the supplier's instructions (Megazyme Ltd). Linearity of the timecourse of the reaction between the glucose detection reagent and glucose was tested using a series of glucose dilutions.
The method for preparation of mammalian small intestine mucosal disaccharidases was based on Griffiths (1998), omitting ammonium sulphate fractionation steps. The small intestine was dissected out of a female wild rabbit, and opened longitudinally using a scalpel. The mucosal layer was scraped off using the edge of a clean microscope slide, and placed into 3 ml of dH2O. The mucosal layer suspension was centrifuged at around 1000 rpm for 30 seconds to sediment tissue debris. The supernatant ([…]) was removed, and centrifuged again at 3500 rcf for 1 minute to remove fine particulates from suspension. The supernatant was diluted to give 0.2-0.25 mg/ml protein and stored at −30° C.
Enzyme assays were carried out using 5-15 μl of enzyme preparation, 5 μl of test compound (or dH2O for controls) and 15-25 μl of substrate solution. Reactions were covered using a sheet of plate sealing film, and incubated at 37° C. for 60 minutes. Glucose (from disaccharide hydrolysis) was quantified by adding 200 μl of glucose detection reagent and incubating the reactions for a further twenty-five minutes. Absorbance was measured at 510 nm against control blanks.

[3] = target: T3, β-Glucuronidase Bovine liver (Bos taurus, UniProt A3KMY8); experiment: Glycosidase inhibition: β-Glucuronidase Bovine liver; settings: for inhibition at 800 µM: compounds tested at 0.8 mM;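 on all read-outs here: bovine liver β-glucuronidase acting on p-nitrophenyl β-D-glucuronide substrate in citric acid/disodium hydrogen phosphate buffer, pH 5.0, 27 °C, mean of triplicate runs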
T3 construct: The assay involved the use of Bovine liver β-glucuronidase; purchased Sigma; host or cells: bovine liver
T3 sequence (A3KMY8 1-652): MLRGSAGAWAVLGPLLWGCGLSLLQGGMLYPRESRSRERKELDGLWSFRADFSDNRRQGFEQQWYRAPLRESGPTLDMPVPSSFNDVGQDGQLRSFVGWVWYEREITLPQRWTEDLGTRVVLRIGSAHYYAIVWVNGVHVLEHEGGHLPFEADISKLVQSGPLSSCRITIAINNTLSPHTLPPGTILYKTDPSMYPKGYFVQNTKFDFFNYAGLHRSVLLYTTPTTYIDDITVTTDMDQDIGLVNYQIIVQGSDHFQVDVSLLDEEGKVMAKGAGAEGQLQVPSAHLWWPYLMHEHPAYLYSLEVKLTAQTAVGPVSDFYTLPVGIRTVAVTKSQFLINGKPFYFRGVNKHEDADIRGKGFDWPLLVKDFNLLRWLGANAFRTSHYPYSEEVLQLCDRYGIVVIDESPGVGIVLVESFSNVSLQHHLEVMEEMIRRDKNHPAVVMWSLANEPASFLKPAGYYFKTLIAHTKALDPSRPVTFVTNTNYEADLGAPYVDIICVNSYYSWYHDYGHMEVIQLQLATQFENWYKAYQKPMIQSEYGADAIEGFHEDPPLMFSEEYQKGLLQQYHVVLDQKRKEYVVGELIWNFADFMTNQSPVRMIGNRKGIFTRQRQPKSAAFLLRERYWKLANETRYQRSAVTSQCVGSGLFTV

[4] = target: T4, α-L-fucosidase Bovine kidney (Bos taurus, UniProt Q2KIM0); experiment: Glycosidase inhibition: α-L-fucosidase Bovine kidney; settings: compounds tested at 0.8 mM
T4 construct: α-L-fucosidase (Bovine kidney); purchased Sigma; host or cells: bovine kidney
T4 sequence (Q2KIM0 23-468): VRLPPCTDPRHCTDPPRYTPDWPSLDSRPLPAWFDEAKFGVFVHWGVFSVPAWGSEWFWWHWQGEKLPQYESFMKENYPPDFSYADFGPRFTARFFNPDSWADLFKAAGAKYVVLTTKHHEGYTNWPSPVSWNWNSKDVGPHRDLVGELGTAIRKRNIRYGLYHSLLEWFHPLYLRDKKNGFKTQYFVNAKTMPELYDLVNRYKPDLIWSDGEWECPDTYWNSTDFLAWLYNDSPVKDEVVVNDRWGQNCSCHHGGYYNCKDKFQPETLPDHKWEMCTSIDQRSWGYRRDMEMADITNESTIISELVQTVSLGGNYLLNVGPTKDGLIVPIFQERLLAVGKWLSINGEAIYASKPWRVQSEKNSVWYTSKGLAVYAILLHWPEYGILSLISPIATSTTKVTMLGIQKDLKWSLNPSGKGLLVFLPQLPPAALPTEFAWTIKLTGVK

[5] = tested on: β-D-galactosidase Bovine liver; experiment: Glycosidase inhibition: β-D-galactosidase Bovine liver; settings: compounds tested at 0.8 mM
Source text: as §1, §2

[6] = pH 5.0, 27° C., p-nitrophenyl β-D-glucuronide, read-out: IC50, β-Glucuronidase Bovine liver
[7] = read-out: IC50 against mammalian glucuronidase

T1 sequence (Q8J2T0 97-600): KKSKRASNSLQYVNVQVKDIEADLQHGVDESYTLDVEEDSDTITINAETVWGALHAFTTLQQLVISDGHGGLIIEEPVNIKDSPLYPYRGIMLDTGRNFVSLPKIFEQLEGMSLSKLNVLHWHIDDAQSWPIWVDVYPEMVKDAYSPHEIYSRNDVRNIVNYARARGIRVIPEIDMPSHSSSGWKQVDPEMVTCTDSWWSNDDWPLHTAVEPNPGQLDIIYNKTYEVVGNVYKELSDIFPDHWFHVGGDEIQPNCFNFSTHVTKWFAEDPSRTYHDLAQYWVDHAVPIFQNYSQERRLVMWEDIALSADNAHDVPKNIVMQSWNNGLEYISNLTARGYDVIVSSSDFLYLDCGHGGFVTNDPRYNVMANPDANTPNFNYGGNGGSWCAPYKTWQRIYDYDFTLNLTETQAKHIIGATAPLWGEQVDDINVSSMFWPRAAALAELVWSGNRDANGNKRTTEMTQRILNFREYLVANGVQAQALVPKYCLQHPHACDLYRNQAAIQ

SMILES	inhibition at 800 µM [1] [%]	IC50 [2] [µM]	IC50 [3, 6] [µM]	inhibition at 800 µM [4] [%]	sucrase IC50 (uM) [2]	IC50 [3, 7] [µM]	% inhibition, β-D-galactosidase Bovine liver [5]	inhibition at 800 µM [3] [%]
CCCCOC(=O)[C@@H]1[C@@H](O)[C@H](O)[C@@H](O)CN1CCCC [Compound T2, (2S,3R,4R,5S)-Butyl 1-butyl-3,4,5-trihydroxypiperidine-2-carboxylate]	< 50	> 800	280	< 50	–	–	–	–
O=C(O)CCN1C[C@H](O)[C@@H](O)[C@H](O)[C@H]1CO [Compound T1]	< 50	6.1	–	< 50	very weak inhibition	50	–	–
O=C(O)CN1[C@H](CO)[C@@H](O)[C@H](O)[C@H]1CO [Compound S2, 2-((2R,3R,4R,5R)-3,4-Dihydroxy-2,5-bis(hydroxymethyl)pyrrolidin-1-yl)acetic acid]	< 50	> 800	507	< 50	–	–	60%	–
OC[C@H]1NC[C@H](O)[C@@H](O)[C@@H]1O [DNJ, 1-deoxynojirimycin, reference compound]	< 10	0.09	–	< 10	–	–	NI (NI = no inhibition)	< 10
O=C(O)[C@H]1NC[C@H](O)[C@@H](O)[C@@H]1O [Compound G2, 2S,3R,4R,5S-trihydroxypiperidine-2-carboxylic acid]	< 10	> 800	–	< 10	–	107	NI (NI = no inhibition)	90
